Source: PMC10489817, “2-Alkyl-Substituted-4-Amino-Thieno[2,3-d]Pyrimidines: Anti-Proliferative Properties to In Vitro Breast Cancer Models” (Molecules, 2023)
pIC50: −log10 of the molar value.

Tested on: BALB 3T3 cells
Assay: in vitro 3T3 NRU test, cytotoxicity
Assay type: cell-based, mouse
Conditions: for pIC50: BALB 3T3, value in brackets
Protocol: Compounds 2–5 were studied for cytotoxicity/phototoxicity by an in vitro 3T3 NRU-test. The cell line BALB 3T3, clone A31 (mouse embryo fibroblasts), was incubated with the test compounds at a concentration from 15 to 4000 µg/mL for 24 h at 37 °C, 5% CO2, and 95% humidity. The cytotoxicity and phototoxicity were expressed in percentages relative to the negative control determined. […] Based on the dose–response curves, the CC50/PC50 values (50% cytotoxic/phototoxic concentration) were calculated by nonlinear regression analysis (Table 1). The CC50 values can be used to calculate the PIF (photo-irritancy factor) for each test compound according to the following formula: PIF = CC50/PC50.
BALB/3T3 cells were cultured in 75 cm^2 tissue culture flasks in DMEM, 10% FBS, 2 mM glutamine, and antibiotics (penicillin 100 U/mL and streptomycin-100 µg/mL) at 37 °C, 5% CO2, and 90% relative humidity. Cytotoxicity/phototoxicity was assessed by a validated BALB/3T3 clone A31 neutral red uptake assay (3T3 NRU test). Briefly, cells were plated in a 96-well microtiter plate at a density of 1 × 10^4 cells/100 µL/well and incubated for 24 h. A wide concentration range was applied for the test compounds. For the phototoxicity tests, 96-well plates were irradiated with a dose of 2.4 J/cm^2, and the cells were incubated for an additional 24 h. After treatment with neutral red medium, washing, and treatment with the ethanol/acetic acid solution, the absorption was measured on a TECAN microplate reader (TECAN, Grödig, Austria) at a wavelength of 540 nm. The light source which we used was a light-emitting diode (LED) matrix—an artificial solar light simulator Helios-iO, model LE-9ND55-H—5500K (SERIC Ltd., Tokyo, Japan).
Cytotoxicity/phototoxicity were expressed as CC50/PC50 values (concentrations required for 50% cytotoxicity/phototoxicity), calculated using non-linear regression analysis (GraphPad Software GraphPad Prism 9.5.1, San Diego, CA, USA). The CC50 values were used to calculate the PIF (photo-irritancy factor) for each test substance, according to the following formula: […]

SMILES	pIC50	IC50 of Mean ± SD, Cytotoxicity (BALB 3T3, 24 h, NRU, no irradiation (CC50))
CCOC(=O)Cc1nc(N)c2c(C)c(C(=O)OCC)sc2n1 [Compound 2, Ethyl 4-Amino-2-(2-Ethoxy-2-Oxoethyl)-5-Methylthieno[2,3-d]Pyrimidine-6-Carboxylate]	2.27	–
CCOC(=O)c1sc2nc(CC)nc(N)c2c1C [Compound 4, Ethyl 4-Amino-2-Ethyl-5-Methylthieno[2,3-d]Pyrimidine-6-Carboxylate]	2.19	1678 ± 70.4 µg/mL
